Results as given in ChEMBL document CHEMBL1146406, “Inhibition of Bacterial RNA Polymerases. Peptide Metabolites from the Cultures of Streptomyces sp” (J Nat Prod, 1997).
Activity calls are given as the source filed them. The calls are words filed in the database; no cut-off is given here. Numbered stars: 1 amine (or outer) side, 2 acyl side, 3 side chain; on linkers, the order of the positions; unused ones are H or OH. Bridge positions count the residues as written; N and C are the ends. Square brackets hold non-standard residues; d marks the D form. Peptide text beside a SMILES is read from it. * marks the point of attachment. X2 = C[C@H](Oc1ccc([C@H](N[*:1])C(=O)[*:2])cc1)[C@@]1(/C=C/C(=O)[*:3])CO1; X1 = CC(C)[C@H](O)[C@H](C)C(=O)*; aIle = CC[C@@H](C)[C@H](N)C(=O)O; dNMeF = CN[C@H](Cc1ccccc1)C(=O)O; aThr = C[C@H](O)[C@H](N)C(=O)O

Key:
[1] = tested on: Staphylococcus aureus; assay: (§1) Inhibition of Staphylococcus aureus RNA polymerase by high throughput filtration assay
[2] = tested on: Escherichia coli; assay: (§2) Inhibition of Escherichia coli RNA polymerase by high throughput filtration assay
[3] = as §1
[4] = as §2
[5] = organism: Homo sapiens; assay: Inhibition of human RNA polymerase

| SMILES | Activity [1] | Activity [2] | IC50 [3] | IC50 [4] | Activity [5] |
| --- | --- | --- | --- | --- | --- |
| CC[C@@H](C)[C@@H]1NC(=O)[C@@H](CC(C)C)NC(=O)[C@H](CC(C)C)NC(=O)[C@H](Cc2c[nH]c3ccccc23)NC(=O)CNC(=O)[C@H](CC(N)=O)NC1=O (cyclo(GWL[dL][aIle]N)) | inactive | inactive | – | – | – |
| CC[C@@H](C)[C@@H]1NC(=O)[C@H](NC(=O)[C@@H](C)[C@@H](O)C(C)C)[C@H](C)OC(=O)[C@H]2COC(=O)CNC(=O)/C=C/[C@@]3(CO3)[C@H](C)Oc3ccc(cc3)[C@H](NC1=O)C(=O)N(C)[C@H](Cc1ccccc1)C(=O)N[C@@H]([C@H](C)O)C(=O)N2 [SALINAMIDE A] (X1-[dT][aIle][X2][dNMeF][aThr][dS]; ester 1-C; linker 3-6 via G) | – | – | 500 nM | 500 nM | inactive |
